In article PMC9230590, “Pharmacokinetics and Tissue Distribution of Enavogliflozin in Mice and Rats” (Pharmaceutics, 2022):
Read-outs that look alike come from different tables or passages of the source.

Tests used:
SGLT2 = tested on: SGLT2; set-up: method as in PMID 32183468; details: cited from earlier work
[1] = Pharmacokinetics after intravenous injection in mice; format: in vivo, ICR mice; details: for AUC(0-inf) / AUC(0-t) / half-life / MRT / clearance / Vd: ICR, mouse; for AUC(0-inf) / AUC(0-t) / half-life / MRT / clearance / Vd / Co: plasma; for AUC∞/D / Co/D: dose normalized
Protocol: Fifty-four ICR mice were randomly divided into nine groups (n = 6 per group; Table 1) and intravenously administered an enavogliflozin solution at doses of 0.3, 1, and 3 mg/kg. The drug was dissolved in a mixture of 10% DMSO and 90% saline and injected via the tail vein. Before blood sampling, mice were anesthetized for 5 min using 2% isoflurane in a vaporizer with an oxygen flow of 0.8 L/min. Blood sampling used a sparse sampling method via the right or left retro-orbital vein using heparinized capillary tubes (Heinz Herenz, Hamburg, Germany). Final blood was collected from the abdominal artery using a heparin-treated 1 mL syringe (Jung Lim Co. Ltd., Choong-Buk, Korea) under isoflurane anesthesia (Table 1). Blood samples were collected at 0, 0.083, 0.25, 0.5, 1, 2, 4, 8, and 24 h and centrifuged at 12,000× g for 1 min to separate plasma. An aliquot (30 µL) of each plasma sample was stored at −80 °C until enavogliflozin analysis.
Concentrations of enavogliflozin in plasma and tissue homogenate samples were analyzed using an Agilent 6430 triple quadrupole liquid chromatography-mass spectrometry (LC–MS/MS) system (Agilent, Wilmington, DE, USA) following a previously published method.
The data were expressed as the means ± standard deviation for the groups. Pharmacokinetic parameters, such as the area under the plasma concentration–time curve during the period of observation (AUClast), AUC to infinite time (AUC∞), clearance (CL), and volume of distribution at steady-state (Vd,ss), the terminal half-life (t1/2), and mean residence time (MRT) were calculated using non-compartment analysis with WinNonlin software (version 5.1; Pharsights, Cary, NC, USA). The AUC ratios were calculated by dividing the AUClast of enavogliflozin in the tissue samples by the plasma AUClast values of enavogliflozin [15].

[2] = tested on: urinary glucose excretion; set-up: method as in PMID 35395697; details: single oral administration, dose range 0.2 to 5.0 mg, healthy male volunteers; cited from earlier work

SMILES: OC[C@H]1O[C@@H](c2cc(Cc3ccc(C4CC4)cc3)c(Cl)c3c2CCO3)[C@H](O)[C@@H](O)[C@@H]1O [enavogliflozin, (2S,3R,4R,5S,6R)-2-(7-chloro-6-(4-cyclopropylbenzyl) -2,3-dihydrobenzofuran-4-yl)-6-(hydroxymethyl)tetrahydro-2H-pyran-3,4,5-triol]
- IC50 (SGLT2): 0.8 ± 0.3 nM
- mode of SGLT2 inhibition (SGLT2; restrained recovery of SGLT2 activity after removal): reversibly and competitively inhibited SGLT2
- difference in IC50 values for SGLT2 versus SGLT1 (SGLT2; selectivity SGLT2 over SGLT1): 667 fold
- AUC(0-inf) ([1]; IV 0.3 mg/kg): 512 ± 30.7 ng·h/mL
- AUC(0-t) ([1]; IV 0.3 mg/kg): 479 ± 33.6 ng·h/mL
- half-life ([1]; IV 0.3 mg/kg): 360 ± 78 min
- AUC(0-inf) ([1]; IV 1 mg/kg): 1630 ± 336 ng·h/mL
- AUC(0-t) ([1]; IV 1 mg/kg): 1510 ± 282 ng·h/mL
- half-life ([1]; IV 1 mg/kg): 390 ± 84 min
- AUC(0-inf) ([1]; IV 3 mg/kg): 5080 ± 1060 ng·h/mL
- AUC(0-t) ([1]; IV 3 mg/kg): 4660 ± 998 ng·h/mL
- half-life ([1]; IV 3 mg/kg): 396 ± 30 min
- MRT ([1]; IV 0.3 mg/kg): 5.2 ± 0.4 h
- clearance ([1]; IV 0.3 mg/kg, read-out: CL): 9.8 ± 0.6 mL/min/kg
- Vd ([1]; IV 0.3 mg/kg, read-out: Vd,ss): 3.1 ± 0.3 L/kg
- MRT ([1]; IV 1 mg/kg): 4.9 ± 0.5 h
- clearance ([1]; IV 1 mg/kg, read-out: CL): 10.7 ± 2.5 mL/min/kg
- Vd ([1]; IV 1 mg/kg, read-out: Vd,ss): 3.1 ± 0.6 L/kg
- MRT ([1]; IV 3 mg/kg): 5.2 ± 0.8 h
- clearance ([1]; IV 3 mg/kg, read-out: CL): 10.2 ± 2.1 mL/min/kg
- Vd ([1]; IV 3 mg/kg, read-out: Vd,ss): 3.2 ± 0.5 L/kg
- clearance ([1]; IV 0.3–3 mg/kg, all doses together, read-out: Systemic clearance): 10.1 ± 1.59 mL/min/kg
- Vd ([1]; IV, range over doses 0.3–3 mg/kg, read-out: steady-state volume of distribution (Vd,ss)): 3.1 to 3.2 L/kg
- AUC∞/D ([1]; IV 0.3 mg/kg): 1706.8 ± 102.3
- Co/D ([1]; IV 0.3 mg/kg): 416.8 ± 31.3
- Co ([1]; IV 0.3 mg/kg): 125.0 ± 9.4 ng/mL
- AUC∞/D ([1]; IV 1 mg/kg): 1626.7 ± 335.6
- Co/D ([1]; IV 1 mg/kg): 408.6 ± 103.2
- Co ([1]; IV 1 mg/kg): 408.6 ± 103.2 ng/mL
- AUC∞/D ([1]; IV 3 mg/kg): 1694.3 ± 354.5
- Co/D ([1]; IV 3 mg/kg): 424.7 ± 62.2
- Co ([1]; IV 3 mg/kg): 1274.1 ± 186.6 ng/mL
- urinary glucose excretion [2]: dose-dependent increase
